In patent publication EP1733758A1, “Methods for administration of a farnesyl dibenzodiazepinone” (Ecopia Biosciences Inc., priority 2005, dated 2006):

Tests used:
[1] = Toxicity of 14-day continuous intravenous infusion in monkeys; type: in vivo
Method: Cynomolgus monkeys received continuous IV infusion over 14 days of Formula I at 5 mg/kg/day, 15 mg/kg/day, or 30 mg/kg/day. The drug was infused intravenously (24 hours/day) into the femoral vein at a dose rate of 2 ml/kg/hour for 14 consecutive days. Blood samples were removed from each monkey on Days 1, 2, 6, 10, and 15 of the treatment period. Monkeys were bled by venipuncture and samples were collected into tubes containing K2EDTA. On Day 1, samples were collected at 2, 6, and 12 hours after initiation of treatment. Additional samples were collected at 30 hours after the start of infusion (Day 2). On Days 6 and 10, samples were collected at approximately 6 hours after the bag changes. At the end of the 14 days of infusion, on Day 15, samples were collected at 1 hour prior to cessation of dose administration, and at 5 min, 30 min, 1 h, 2 h, 4 h, 8 h, and 24 h following cessation of dose administration.

tumor cell lines = experiment: In vitro activity against tumor cell lines (average); type: cell-based
[2] = Acute toxicity of 24-hour CIV administration in monkeys; type: in vivo; conditions: infusion rate 2 mL/kg/hour
[3] = Pharmacokinetics of 14-day continuous intravenous infusion in rats; type: in vivo, Sprague-Dawley rats; conditions: for steady-state plasma concentration / Css / T½z: 14-day CIV; for Css: average of plasma concentration between 30h and 14 days; for T½z: calculated at the end of treatment
Method: Sprague-Dawley rats received an intravenous continuous infusion over 14 days of Formula I at 25 mg/kg/day, 50 mg/kg/day, or 75 mg/kg/day at a rate of 2 mL/kg/h for 14 consecutive days (same formulation as in Example 7). Blood was collected from the jugular vein in tubes containing K2 EDTA from 3 rats/sex/group at the following time points: 2, 6, and 12 hours after the start of dosing on Day 1, on Day 2 at 6 hours (approximately 30 hours after the start of dosing), on Days 6 and 10 at 6 hours, and on Day 15, 1 hour prior the end of dosing, and then at 5 min, 15 min, 30 min, 1 h, and 2 h after the end of dosing.

[4] = tested on: P388 murine leukemia cells; experiment: Murine P388 leukemia survival model; type: in vivo
Method: Formulation: The compound of Formula I is first dissolved in 1 volume of 90% propylene glycol (PG). This is followed by the addition of 2 volumes of 45% polyethylene glycol 400 (PEG 400). The volume ratio of PEG 400/PG/water is respectively 30:30:40. Compound is injected in a volume of 10 mL/kg.
DBA/2 female mice (6 weeks of age) were injected intraperitoneally (IP) with 1 x 10^6 P388 murine leukemia cells (day 0). Mice were randomized in 4 groups (10 mice per group) at Day 1 and treated with the following dose and schedule. Group 1: IV injection of vehicle (PEG/PG formulation) on D1 and D8, daily IP administration of vehicle from D2 to D7 and from D9 to D10 Group 2: IV injection of the compound of Formula I in PEG-PG formulation at 50 mg/kg on D1 followed by daily IP administration of the compound of Formula I in PEG-PG formulation at 10 mg/kg from D2 to D4 and from D6 to D12 Group 3: Daily IP administration of the compound of Formula I in PEG-PG formulation at 10 mg/kg from D1 to D4 and from D8 to D14
Mice body weights were recorded twice a week. Lethality and behaviour of animals were recorded every day. All vehicle control mice died between D8 to D10 from peritoneal carcinomatosis associated with ascites. Three (3) mice from group 2 died one day after treatment due to formulation toxicity. The remaining seven (7) died between days 8 and 12. Mice from group 3 died between days 8 and 12. The results are expressed as percent of mean survival time of treated animals over the mean survival time of the control group (treated vs control, T/C%) and as increase life span (mean survival time of treated animals minus that of control animals over the mean survival time of the control group; ILS%).

[5] = Population pharmacokinetic analysis (NONMEM), monkey; type: in vivo; conditions: for clearance: monkey, plasma, intravenous; for clearance / mean steady-state plasma concentration: monkeys, 14-day continuous infusion
Method: An analysis was performed to derive allometric equations for Formula I pharmacokinetic parameters using Formula I plasma concentration-time data from three species, including mouse, rat, and monkey, and to estimate human pharmacokinetic parameters from those allometric equations.
Plasma concentrations of Formula I were obtained from mice, rats, and monkeys following intravenous injection or continuous infusion. Formula I pharmacokinetic parameters in mice, rats, and monkeys were estimated using population pharmacokinetic analysis, a function of the software program NONMEM™ (version 5). Typical population pharmacokinetic parameters for Formula I in humans were extrapolated from allometric equations that were derived from pharmacokinetic parameters estimated in the three animal species.
A two-compartment model with a first-order elimination from the central compartment adequately described Formula I plasma concentration-time profiles following intravenous bolus injection (30 mg/kg) in mice and rats, 7-day continuous infusion in rats (50 to 170 mg/kg/day), and 14-day continuous infusion in monkeys (5 to 30 mg/kg/day).
Application of a two-compartment model with Michaelis-Menten elimination better described the concentration data in monkeys than the linear model. Because the target concentration in humans is 2 µM, at which linear pharmacokinetics is assumed, all simulations for human plasma concentrations were performed based on a two-compartment model with linear first-order elimination.

[6] = Grp 2: IV 50 mg/kg (D1), IP 10 mg/kg (D2-4 & D6-12)
[7] = Grp 3: IP 10 mg/kg (D1-4 & D8-14)
[8] = Monkey (CIV), typical population PK parameter
[9] = 5 mg/kg/day (Example 9 analysis)
[10] = 15 mg/kg/day (Example 9 analysis)
[11] = 30 mg/kg/day (Example 9 analysis)

For CC(C)=CCC/C(C)=C/CC/C(C)=C/CN1C(=O)c2cccc(O)c2Nc2c(O)cc(O)cc21 [Formula I, 10-farnesyl-4,6,8-trihydroxy-dibenzodiazepin-11-one], the compound associated toxicity [1] was “no severe compound associated toxicity was observed”, the “degenerative changes in any organs, including the infusion site” value [1] was “No degenerative changes” and the “effect on body weight, ocular condition, electrocardiographic activity and other parameters assessed” value [1] was “no effect”. The “histological observations, reflected clearance of the vehicle used” value [1] was “Diffuse vacuolization of hepatocytes and accumulation of foamy histiocytes (macrophages) in the spleen”, the “side effects (reversible)” value [1] was “inappetance and a moderate degree of regenerative anemia” and the IC50 (tumor cell lines) was no less than 1 µM. For the same molecule, the “acute toxicity / tolerability” value ([2]; 35 mg/kg) was “well tolerated”, the “acute toxicity / tolerability” value ([2]; 70 mg/kg) was “well tolerated” and the steady-state plasma concentrations ([3]; 14-day CIV at doses of 50 and 75 mg/kg/day, above therapeutic threshold) was greater than 2 µM. For the same molecule, the steady-state plasma concentration ([3]; 25 mg/kg/day) was roughly 0.8 µM, the Css ([3]; 25 mg/kg/day) was 347 ng/mL and the T½z ([3]; 25 mg/kg/day) was 1.6 h. The steady-state plasma concentration ([3]; 50 mg/kg/day) was roughly 2.5 µM, the Css ([3]; 50 mg/kg/day) was 1,150 ng/mL and the T½z ([3]; 50 mg/kg/day) was 1.2 h. The steady-state plasma concentration ([3]; 75 mg/kg/day) was roughly 3.9 µM, the Css ([3]; 75 mg/kg/day) was 1,796 ng/mL and the T½z ([3]; 75 mg/kg/day) was 1.2 h. The plasma concentration ([3]; CIV 50 mg/kg/day, Day 10 (unusually high)) was 1,753 ng/mL, the “% ILS” value [4, 6] was 33% and the “%T/C” value [4, 6] was 133.3%. The “Mean Survival Days ± SD” value [4, 6] was 11 ± 1.5 days, the Median survival [4, 6] was 12 and the “% ILS” value [4, 7] was 38.9%. For the same molecule, the “%T/C” value [4, 7] was 138.9%, the “Mean Survival Days ± SD” value [4, 7] was 12.6 ± 4.9 days and the Median survival [4, 7] was 12.5. For the same molecule, the “mice died one day after treatment due to formulation toxicity” value ([4]; group 2 (10 mice), IV 50 mg/kg in PEG-PG formulation on D1) was 3 mice, the Q ([5]; Monkey (CIV), WT 3.8 Kg) was 0.151 L/h and the V1 ([5]; Monkey (CIV), WT 3.8 Kg) was 0.771 L. It also gave a V2 ([5]; Monkey (CIV), WT 3.8 Kg) of 1.59 L, a Ke [5, 8] of 2.172 h⁻¹ and a Q [5, 8] of 0.0398 L/h/kg. It also gave a V1 [5, 8] of 0.203 L/kg, a V2 [5, 8] of 0.419 L/kg and a clearance [5, 9] of 0.63 L/h/kg. For the same molecule, the clearance [5, 10] was 0.57 L/h/kg, the clearance [5, 11] was 0.23 L/h/kg and the “mean steady-state plasma concentration” value [5, 9] was 0.75 µM. For the same molecule, the “mean steady-state plasma concentration” value [5, 10] was 2.57 µM and the “mean steady-state plasma concentration” value [5, 11] was 14.07 µM.
